Measurements taken from US8952024B2, “Herbicidal pyrimidone derivatives” (E I du Pont de Nemours and Company, priority 2009, dated 2015).

What was measured:
Type in all cases: in vivo
[1] = test system: ragweed (common ragweed, Ambrosia elatior); experiment: Test B pre-/postemergence plant response
Text: (§1) Seeds of plant species selected from blackgrass (Alopecurus myosuroides), downy bromegrass (Bromus tectorum), green foxtail (Setaria viridis), Italian ryegrass (Lolium multiflorum), wheat (Triticum aestivum), wild oat (Avena fatua), deadnettle (henbit deadnettle, Lamium amplexicaule), galium (catchweed bedstraw, Galium aparine), bermudagrass (Cynodon dactylon), Surinam grass (Brachiaria decumbens), cocklebur (Xanthium strumarium), corn (Zea mays), large crabgrass (Digitaria sanguinalis), woolly cupgrass (Eriochloa villosa), giant foxtail (Setaria faberii), goosegrass (Eleusine indica), johnsongrass (Sorghum halepense), kochia (Kochia scoparia), lambsquarters (Chenopodium album), morningglory (Ipomoea coccinea), nightshade (eastern black nightshade, Solanum ptycanthum), yellow nutsedge (Cyperus esculentus), pigweed (Amaranthus retroflexus), ragweed (common ragweed, Ambrosia elatior), Russian thistle (Salsola kali), soybean (Glycine max), sunflower (common oilseed sunflower, Helianthus annuus) and velvetleaf (Abutilon theophrasti) were planted into a blend of loam soil and sand and treated preemergence with test compounds formulated in a non-phytotoxic solvent mixture which included a surfactant.
(§2) At the same time, plants selected from these crop and weed species and also winter barley (Hordeum vulgare), canarygrass (Phalaris minor), chickweed (Stellaria media) and windgrass (Apera spica-venti) were planted in pots containing Redi-Earth® planting medium (Scotts Company, 14111 Scottslawn Road, Marysville, Ohio 43041) comprising spaghnum peat moss, vermiculite, wetting agent and starter nutrients and treated with postemergence applications of some of the test chemicals formulated in the same manner. Plants ranged in height from 2 to 18 cm (1- to 4-leaf stage) for postemergence treatments.
(§3) Treated plants and controls were maintained in a greenhouse for 13 to 15 days, after which time all treated plants were visually evaluated and compared to controls. Plant response ratings, summarized in Table B, are based on a scale of 0 to 100 where 0 is no effect and 100 is complete control. A dash (-) response means no test result.

[2] = test system: johnsongrass (Sorghum halepense); experiment: Test B pre-/postemergence plant response
Text: as §1, §2, §3

corn (Zea mays) = experiment: Test B pre-/postemergence plant response
Text: as §1, §2, §3

[3] = test system: lambsquarters (Chenopodium album); experiment: Test B pre-/postemergence plant response
Text: as §1, §2, §3

[4] = test system: velvetleaf (Abutilon theophrasti); experiment: Test B pre-/postemergence plant response
Text: as §1, §2, §3

[5] = test system: Surinam grass (Brachiaria decumbens); experiment: Test B pre-/postemergence plant response
Text: as §1, §2, §3

[6] = test system: blackgrass (Alopecurus myosuroides); experiment: Test B pre-/postemergence plant response
Text: as §1, §2, §3

[7] = test system: bermudagrass (Cynodon dactylon); experiment: Test B pre-/postemergence plant response
Text: as §1, §2, §3

[8] = test system: large crabgrass (Digitaria sanguinalis); experiment: Test B pre-/postemergence plant response
Text: as §1, §2, §3

wild oat (Avena fatua) = experiment: Test B pre-/postemergence plant response
Text: as §1, §2, §3

[9] = test system: yellow nutsedge (Cyperus esculentus); experiment: Test B pre-/postemergence plant response
Text: as §1, §2, §3

soybean (Glycine max) = experiment: Test B pre-/postemergence plant response
Text: as §1, §2, §3

[10] = test system: Italian ryegrass (Lolium multiflorum); experiment: Test B pre-/postemergence plant response
Text: as §1, §2, §3

[11] = test system: woolly cupgrass (Eriochloa villosa); experiment: Test B pre-/postemergence plant response
Text: as §1, §2, §3

[12] = test system: chickweed (Stellaria media); experiment: Test B postemergence plant response; settings: Postemergence
In short: (§4)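 Plants grown in peat/vermiculite medium were sprayed postemergence at 2–18 cm height (1- to 4-leaf stage). After 13–15 days in the greenhouse, response was rated visually against untreated controls on a 0–100 scale (0 no effect, 100 complete control).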

[13] = test system: canarygrass (Phalaris minor); experiment: Test B postemergence plant response; settings: Postemergence
In short: as §4

[14] = test system: winter barley (Hordeum vulgare); experiment: Test B postemergence plant response; settings: Postemergence
In short: as §4

[15] = test system: windgrass (Apera spica-venti); experiment: Test B postemergence plant response; settings: Postemergence; for Plant response rating, Windgrass: scale 0 (no effect) to 100 (complete control)
In short: as §4

[16] = 250 g ai/ha, Preemergence, 0 to 100 scale
[17] = Postemergence, 62 g ai/ha, scale 0 (no effect) to 100 (complete control), 13 to 15 days
[18] = Postemergence, 125 g ai/ha, visual rating after 13 to 15 days, scale 0 (no effect) to 100 (complete control)
[19] = Postemergence, 250 g ai/ha, scale 0 to 100
[20] = Preemergence, 31 g ai/ha, scale 0 to 100 (0 no effect, 100 complete control)
[21] = Preemergence, 62 g ai/ha, scale 0 to 100, 0 no effect, 100 complete control
[22] = Preemergence, 125 g ai/ha, 0 to 100 scale
[23] = Postemergence, 31 g ai/ha, scale 0 to 100 (0 no effect, 100 complete control)
[24] = 31 g ai/ha, scale 0 to 100 (0 no effect, 100 complete control)
[25] = 62 g ai/ha, scale 0 (no effect) to 100 (complete control), 13 to 15 days
[26] = 125 g ai/ha, visual rating after 13 to 15 days, scale 0 (no effect) to 100 (complete control)

Question: Which results are given for Cc1ccc(C)c(-n2c(-c3ccccc3)ncc(C(=O)C3=C(O)CCCC3=O)c2=O)c1 [Compound 29]?
Answer: Plant response rating, Ragweed [1, 16]: 100; Plant response rating, Ragweed [1, 17]: 85; Plant response rating, Ragweed [1, 18]: 100; Ragweed plant response rating [1, 19]: 100; Plant response rating, Ragweed [1, 20]: 80; Plant response rating, Ragweed [1, 21]: 90; Ragweed plant response rating [1, 22]: 100; Plant response rating, Johnsongrass [2, 16]: 90; Plant response rating, Johnsongrass [2, 17]: 20; Plant response rating, Johnsongrass [2, 18]: 40; Johnsongrass plant response rating [2, 19]: 45; Plant response rating, Johnsongrass [2, 20]: 0; Plant response rating, Johnsongrass [2, 21]: 5; Johnsongrass plant response rating [2, 22]: 30; Plant response rating, Corn (corn (Zea mays); [16]): 0; Plant response rating, Corn (corn (Zea mays); [23]): 20; Plant response rating, Corn (corn (Zea mays); [17]): 35; Plant response rating, Corn (corn (Zea mays); [18]): 50; Corn plant response rating (corn (Zea mays); [19]): 60; Plant response rating, Corn (corn (Zea mays); [20]): 0; Plant response rating, Corn (corn (Zea mays); [21]): 0; Corn plant response rating (corn (Zea mays); [22]): 0; Plant response rating, Lambsquarters [3, 16]: 100; Plant response rating, Lambsquarters [3, 17]: 85; Plant response rating, Lambsquarters [3, 18]: 90; Lambsquarters plant response rating [3, 19]: 98; Plant response rating, Lambsquarters [3, 20]: 100; Plant response rating, Lambsquarters [3, 21]: 100; Lambsquarters plant response rating [3, 22]: 100; Plant response rating, Velvetleaf [4, 16]: 100; Plant response rating, Velvetleaf [4, 17]: 55; Plant response rating, Velvetleaf [4, 18]: 80; Velvetleaf plant response rating [4, 19]: 98; Plant response rating, Velvetleaf [4, 20]: 10; Plant response rating, Velvetleaf [4, 21]: 90; Velvetleaf plant response rating [4, 22]: 100; Plant response rating, Surinam Grass [5, 16]: 95; Plant response rating, Surinam Grass [5, 17]: 50; Plant response rating, Surinam Grass [5, 18]: 70; Surinam Grass plant response rating [5, 19]: 85; Plant response rating, Surinam Grass [5, 20]: 0; Plant response rating, Surinam Grass [5, 21]: 20; Surinam Grass plant response rating [5, 22]: 90; Plant response rating, Blackgrass [6, 16]: 50; Plant response rating, Blackgrass [6, 23]: 10; Plant response rating, Blackgrass [6, 17]: 20; Plant response rating, Blackgrass [6, 18]: 40; Blackgrass plant response rating [6, 19]: 50; Plant response rating, Blackgrass [6, 20]: 5; Plant response rating, Blackgrass [6, 21]: 5; Blackgrass plant response rating [6, 22]: 50; Plant response rating, Bermudagrass [7, 16]: 100; Plant response rating, Bermudagrass [7, 23]: 85; Plant response rating, Bermudagrass [7, 17]: 90; Plant response rating, Bermudagrass [7, 18]: 90; Bermudagrass plant response rating [7, 19]: 100; Plant response rating, Bermudagrass [7, 20]: 98; Plant response rating, Bermudagrass [7, 21]: 100; Bermudagrass plant response rating [7, 22]: 100; Plant response rating, Crabgrass, Large [8, 16]: 100; Plant response rating, Crabgrass, Large [8, 23]: 45; Plant response rating, Crabgrass, Large [8, 17]: 50; Plant response rating, Crabgrass, Large [8, 18]: 55; Crabgrass, Large plant response rating [8, 19]: 80; Plant response rating, Crabgrass, Large [8, 20]: 98; Plant response rating, Crabgrass, Large [8, 21]: 100; Crabgrass, Large plant response rating [8, 22]: 100; Plant response rating, Oat, Wild (wild oat (Avena fatua); [16]): 50; Plant response rating, Oat, Wild (wild oat (Avena fatua); [17]): 50; Plant response rating, Oat, Wild (wild oat (Avena fatua); [18]): 60; Oat, Wild plant response rating (wild oat (Avena fatua); [19]): 80; Plant response rating, Oat, Wild (wild oat (Avena fatua); [20]): 0; Plant response rating, Oat, Wild (wild oat (Avena fatua); [21]): 0; Oat, Wild plant response rating (wild oat (Avena fatua); [22]): 45; Plant response rating, Nutsedge, Yellow [9, 16]: 85; Plant response rating, Nutsedge, Yellow [9, 17]: 50; Plant response rating, Nutsedge, Yellow [9, 18]: 70; Nutsedge, Yellow plant response rating [9, 19]: 70; Plant response rating, Nutsedge, Yellow [9, 20]: 0; Plant response rating, Nutsedge, Yellow [9, 21]: 30; Nutsedge, Yellow plant response rating [9, 22]: 60; Plant response rating, Soybean (soybean (Glycine max); [16]): 95; Plant response rating, Soybean (soybean (Glycine max); [17]): 95; Plant response rating, Soybean (soybean (Glycine max); [18]): 98; Soybean plant response rating (soybean (Glycine max); [19]): 98; Plant response rating, Soybean (soybean (Glycine max); [20]): 20; Plant response rating, Soybean (soybean (Glycine max); [21]): 85; Soybean plant response rating (soybean (Glycine max); [22]): 90; Plant response rating, Ryegrass, Italian [10, 16]: 40; Plant response rating, Ryegrass, Italian [10, 17]: 20; Plant response rating, Ryegrass, Italian [10, 18]: 40; Ryegrass, Italian plant response rating [10, 19]: 45; Plant response rating, Ryegrass, Italian [10, 20]: 0; Plant response rating, Ryegrass, Italian [10, 21]: 0; Ryegrass, Italian plant response rating [10, 22]: 10; Plant response rating, Cupgrass, Woolly [11, 16]: 90; Plant response rating, Cupgrass, Woolly [11, 23]: 80; Plant response rating, Cupgrass, Woolly [11, 17]: 85; Plant response rating, Cupgrass, Woolly [11, 18]: 85; Cupgrass, Woolly plant response rating [11, 19]: 85; Plant response rating, Cupgrass, Woolly [11, 20]: 5; Plant response rating, Cupgrass, Woolly [11, 21]: 10; Cupgrass, Woolly plant response rating [11, 22]: 55; Plant response rating, Chickweed [12, 24]: 50; Plant response rating, Chickweed [12, 25]: 50; Plant response rating, Chickweed [12, 26]: 50; Chickweed plant response rating ([12]; 250 g ai/ha, scale 0 to 100): 85; Plant response rating, Canarygrass [13, 24]: 10; Plant response rating, Canarygrass [13, 25]: 20; Plant response rating, Canarygrass [13, 26]: 40; Canarygrass plant response rating ([13]; 250 g ai/ha, scale 0 to 100): 40; Plant response rating, Barley [14, 24]: 0; Plant response rating, Barley [14, 25]: 0; Plant response rating, Barley [14, 26]: 0; Barley plant response rating ([14]; 250 g ai/ha, scale 0 to 100): 0; Plant response rating, Windgrass ([15]; 62 g ai/ha, 13 to 15 days): 10; Plant response rating, Windgrass ([15]; 125 g ai/ha, visual rating after 13 to 15 days): 30; Windgrass plant response rating ([15]; 250 g ai/ha, scale 0 to 100): 50
